Experimental data reported in ChEMBL document CHEMBL4627389, “Constituents of Two Dioscorea Species That Potentiate Antibiotic Activity against MRSA” (2020).
Blank lines part the entries; values can stand above or below the molecule they belong to. The source made the active and inactive calls. The calls are words filed in the database; no cut-off is given here.

Tests used:
[1] = tested on: Staphylococcus aureus; experiment: Potentiation of norfloxacin-induced antibacterial activity against Staphylococcus aureus 1199B assessed as norfloxacin MIC at 64 mg/L by broth dilution assay (reference value: 32 mg/L); assay type: functional
[2] = tested on: Staphylococcus aureus; experiment: Potentiation of norfloxacin-induced antibacterial activity against Staphylococcus aureus 1199B assessed as fold reduction in norfloxacin MIC at 64 mg/L by broth dilution assay relative to norfloxacin alone; assay type: functional
[3] = tested on: Staphylococcus aureus; experiment: Potentiation of […] antibacterial activity against Staphylococcus aureus XU212 assessed as tetracycline MIC at 64 mg/L by broth dilution assay (reference value: […]); assay type: functional
[4] = tested on: Staphylococcus aureus; experiment: Antibacterial activity against Staphylococcus aureus 1199B assessed as inhibition of efflux pump by measuring increase in intracellular accumulation of ethidium bromide at 0.25 times of MIC after 30 mins by fluorescence assay; assay type: functional, organism-based
[5] = tested on: Staphylococcus aureus; experiment: Potentiation of […] antibacterial activity against Staphylococcus aureus XU212 assessed as fold reduction in tetracycline MIC at 64 mg/L by broth dilution assay relative to tetracycline alone; assay type: functional
[6] = tested on: Staphylococcus aureus; experiment: Potentiation of […] antibacterial activity against Staphylococcus aureus XU212 assessed as fold reduction in tetracycline MIC at 100 mg/L by broth dilution assay relative to tetracycline alone; assay type: functional
[7] = tested on: Staphylococcus aureus; experiment: Potentiation of […] antibacterial activity against Staphylococcus aureus XU212 assessed as tetracycline MIC at 100 mg/L by broth dilution assay (reference value: […]); assay type: functional
[8] = tested on: Staphylococcus aureus; experiment: Potentiation of norfloxacin-induced antibacterial activity against Staphylococcus aureus 1199B assessed as fold reduction in norfloxacin MIC at 100 mg/L by broth dilution assay relative to norfloxacin alone; assay type: functional
[9] = tested on: Staphylococcus aureus; experiment: Potentiation of norfloxacin-induced antibacterial activity against Staphylococcus aureus 1199B assessed as norfloxacin MIC at 100 mg/L by broth dilution assay (reference value: 32 mg/L); assay type: functional
[10] = tested on: Staphylococcus aureus; experiment: Potentiation of norfloxacin-induced antibacterial activity against Staphylococcus aureus 1199B assessed as norfloxacin MIC at 30 mg/L by broth dilution assay (reference value: 32 mg/L); assay type: functional
[11] = tested on: Staphylococcus aureus; experiment: Potentiation of […] antibacterial activity against Staphylococcus aureus XU212 assessed as tetracycline MIC at 30 mg/L by broth dilution assay (reference value: […]); assay type: functional
[12] = tested on: Staphylococcus aureus; experiment: Potentiation of norfloxacin-induced antibacterial activity against Staphylococcus aureus 1199B assessed as fold reduction in norfloxacin MIC at 30 mg/L by broth dilution assay relative to norfloxacin alone; assay type: functional
[13] = tested on: Staphylococcus aureus; experiment: Potentiation of norfloxacin-induced antibacterial activity against Staphylococcus aureus 1199B assessed as norfloxacin MIC at 20 mg/L by broth dilution assay (reference value: 32 mg/L); assay type: functional
[14] = tested on: Staphylococcus aureus; experiment: Potentiation of norfloxacin-induced antibacterial activity against Staphylococcus aureus 1199B assessed as fold reduction in norfloxacin MIC at 20 mg/L by broth dilution assay relative to norfloxacin alone; assay type: functional
[15] = tested on: Staphylococcus aureus; experiment: Antibacterial activity against Staphylococcus aureus 1199B assessed as inhibition of efflux pump by measuring increase in intracellular accumulation of ethidium bromide after 30 mins by fluorescence assay; assay type: functional, organism-based
[16] = tested on: Staphylococcus aureus; experiment: Potentiation of […] antibacterial activity against Staphylococcus aureus XU212 assessed as tetracycline MIC at 20 mg/L by broth dilution assay (reference value: […]); assay type: functional
[17] = tested on: Staphylococcus aureus; experiment: Potentiation of […] antibacterial activity against Staphylococcus aureus XU212 assessed as fold reduction in tetracycline MIC at 20 mg/L by broth dilution assay relative to tetracycline alone; assay type: functional

SMILES: COc1cc(CCc2ccccc2O)cc(O)c1OC
MIC [1]: 2 µg/mL | fold change (FC) [2]: 16 | MIC [3]: 64 µg/mL | inhibition [4]: Active | fold change (FC) [5]: 2

SMILES: COc1cc(CCC(=O)CC(O)CC(=O)CCc2ccc(O)c(OC)c2)ccc1O
MIC [10]: 8 µg/mL | MIC [11]: 128 µg/mL | fold change (FC) [12]: 4 | inhibition [4]: Active

SMILES: COC(=O)[C@H]1[C@H]2C[C@@H]3c4[nH]c5cc(OC)ccc5c4CCN3C[C@H]2C[C@@H](OC(=O)c2cc(OC)c(OC)c(OC)c2)[C@@H]1OC [RESERPINE]
MIC [13]: 16 µg/mL | fold change (FC) [14]: 2 | inhibition [15]: Dose-dependent effect | inhibition [4]: Active | MIC [16]: 64 µg/mL | fold change (FC) [17]: 2

More lines, main results first:

MIC [7]: < 0.25 µg/mL | MIC [9]: 16 µg/mL
SMILES: COc1cc(CCC(=O)C[C@H](O)CC(=O)CCc2ccc(O)cc2)ccc1O
fold change (FC) [6]: 512 | fold change (FC) [8]: 2

MIC [7]: 8 µg/mL | MIC [9]: 4 µg/mL
SMILES: COc1ccc(/C=C/C(=O)OCCCCCCCCCCCCCCCCCCCCCCCCCCCCCCCC(=O)O)cc1O
fold change (FC) [6]: 16 | fold change (FC) [8]: 8
